Results reported in patent publication US9200047B2, “SSX-2 peptides presented by HLA class II molecules” (Ludwig Institute for Cancer Research, Ltd., priority 2003, dated 2015).

Tests used:
Assay type in all cases: cell-based, human
[1] = system: SSX-2 specific CD4^+ T cells (clone 2C3); assay: IFN-γ secretion (ELISA) by SSX-2 specific CD4+ T cell clone in response to extended or truncated peptides; settings: for peptide recognition relative to SEQ ID NO:1 (IFN-γ secretion): clone 2C3, EBV LAU 149 as APC, serial peptide dilutions, ELISA after 24 hrs
Procedure: FIG. 2 depicts determination of the minimal sequence optimally recognized by SSX-2 specific CD4^+ T cells. Synthetic peptides extended or truncated at the SSX-213-34 N- or C-terminus were used to determine the minimal length of the epitope recognized by SSX-2 specific CD4^+ T cells. Serial dilutions of each peptide were incubated with EBV LAU 149 and SSX-2 specific CD4^+ T cells. IFN-γ secretion was determined by ELISA in the culture supernatant after 24 hrs of culture. The peptides tested were: […] (SSX-213-34; SEQ ID NO:1); […] (SSX-213-36; SEQ ID NO:2); […] (SSX-213-32; SEQ ID NO:3); VGAQIPEKIQKAFDDIAK (SSX-213-30; SEQ ID NO:4); IPEKIQKAFDDIAKYFSK (SSX-217-34; SEQ ID NO:5); EKIQKAFDDIAKYFSK (SSX-219-34; SEQ ID NO:6); IQKAFDDIAKYFSK (SSX-221-34; SEQ ID NO:7) and […] (SSX-261-82; SEQ ID NO:30).
(§1) For intracellular cytokine secretion detection T cells were incubated with APC at a 1:1 T cells:APC ratio during 4-6 h in the absence or in the presence of peptides at the indicated dose. One hour after the beginning of the incubation Brefeldin A (20 μg/ml, Sigma Chemical Co., Steinheim, Germany) was added to inhibit cytokine secretion. At the end of the incubation period cells were stained with anti-CD4 mAb for 20 min at 4° C. and fixed. Cells were then permeabilized using saponine (Sigma, 0.1% in PBS 10% FCS) stained by incubation with mAb against IFN-γ or IL-2 (BD, Pharmingen) and analyzed by flow cytometry. Data analysis was performed using Cell Quest software. For detection of cytokine secretion in the culture supernatant T cells (10,000) were incubated with stimulating cells (15,000/well) in 96-well round-bottom plates in 200 μl/well of IMDM containing 10% human serum and 20 U/ml hrIL2. After 24 h incubation at 37° C., culture supernatants were collected and the content of IFN-γ determined by ELISA (BioSource Europe, Fleurus, Belgium). IFN-γ ELISPOT assay was performed as described previously (Ayyoub M. et al, 2002, J Immunol 32:2292-2299) using nitrocellulose-lined 96-well microplates (MAHA S45: Millipore, Bedford, Mass.) and an IFN-γ ELISPOT kit (DIACLONE, Besancon, France). Stimulator cells (5×10^4/well) were added together with the indicated number of T cells and peptide (2 μM) where indicated. Spots were counted using a stereomicroscope with a magnification of ×15.
To more precisely define the SSX-2-derived peptide optimally recognized by specific CD4^+ T cells from patient 672, we analyzed the relative capacity of peptide SEQ ID to NO:1 extended or truncated variants to stimulate IFN-γ secretion by specific clonal T cells (clone 2C3). […] Similar results were obtained using another CD4^+ T cell clone (not shown).

CD4^+ T cells = assay: Intracellular IFN-γ / IL-2 staining of peptide-stimulated CD4+ T cell cultures from melanoma patients; settings: culture from patient 672; not shown
Procedure: FIGS. 1A and 1B show detection of SSX-2 specific CD4^+ T cells in peptide stimulated cultures. The presence of specific CD4^+ T cells in the culture from patient 672 was assessed by intracellular staining with anti-IFN-γ (FIG. 1A, left panels) or anti-IL-2 antibodies (FIG. 1A, right panels) after stimulation with autologous PBMC alone (upper panels) or with the peptide submixture P1-3 (containing SSX-2 peptides 1-22, 13-34, 25-46). Numbers in upper right quadrants are percent of cytokine producing cells among CD4^+ T cells.
In vitro sensitization of CD4^+ T cells was carried out as described previously for CD8^+ T cells. […]
(§2) For intracellular cytokine secretion detection T cells were incubated with APC at a 1:1 T cells:APC ratio during 4-6 h in the absence or in the presence of peptides at the indicated dose. […] Cells were then permeabilized using saponine (Sigma, 0.1% in PBS 10% FCS) stained by incubation with mAb against IFN-γ or IL-2 (BD, Pharmingen) and analyzed by flow cytometry. […] After 24 h incubation at 37° C., culture supernatants were collected and the content of IFN-γ determined by ELISA (BioSource Europe, Fleurus, Belgium). […] Spots were counted using a stereomicroscope with a magnification of ×15. […]

[2] = system: SSX-2 specific CD4^+ T cells; assay: Presentation of peptide SSX-2 13-34 by APC bearing different HLA-DP alleles (intracellular IFN-γ secretion); settings: healthy donors (Caucasian); not shown
Procedure: FIG. 3A: Intracellular IFN-γ secretion by SSX-2 specific CD4+ T cells (clone 3C8) upon stimulation with peptide SSX-213-34 was assessed both in the absence and in the presence of anti HLA-DR, -DP or -DQ antibodies. FIG. 3B: The ability of APC bearing different HLA-DP alleles to present peptide SSX-2 13-34 to specific CD4^+ T cells was assessed by intracellular IFN-γ secretion.
Molecular typing of HLA-DP molecules, construction of plasmids and transient transfection. […]
as §2

[3] = system: SSX-2 specific CD4^+ T cells; assay: Presentation of exogenously added peptide by melanoma cell lines to specific CD4+ T cell clones (ELISPOT); settings: two lines, Me 260 and T465A
Procedure: FIGS. 4A and 4B show the lack of tumor recognition by SSX-2 13-34 specific CD4^+ T cells. FIG. 4A: Recognition of Me 260 cells by CD4+ T cells was tested by ELISPOT in the absence or in the presence of exogeneously added peptide SSX-213-34. Where indicated, cells were treated with IFN-γ during 48 hr. FIG. 4B: Recognition of T465A was assessed as in […] as well as upon transfection with an SSX-2 encoding plasmid. The CD8+ T cell clone B3.4 specific for peptide SSX-2 41-49 was used as an internal control.
For intracellular cytokine secretion detection T cells were incubated with APC at a 1:1 T cells:APC ratio during 4-6 h in the absence or in the presence of peptides at the indicated dose. One hour after the beginning of the incubation Brefeldin A (20 μg/ml, Sigma Chemical Co., Steinheim, Germany) was added to inhibit cytokine secretion. At the end of the incubation period cells were stained with anti-CD4 mAb for 20 min at 4° C. and fixed. Cells were then permeabilized using saponine (Sigma, 0.1% in PBS 10% FCS) stained by incubation with mAb against IFN-γ or IL-2 (BD, Pharmingen) and analyzed by flow cytometry. Data analysis was performed using Cell Quest software. […] After 24 h incubation at 37° C., culture supernatants were collected and the content of IFN-γ determined by ELISA (BioSource Europe, Fleurus, Belgium). […] Spots were counted using a stereomicroscope with a magnification of ×15. […]

[4] = system: clonal CD8^+ T cells (clone B3.4); assay: Processing of exogenous SSX-2 protein by professional APC and recognition by SSX-2 41-49 specific CD8+ T cells; settings: EBV and DC as APC
[5] = system: SSX-2 13-34 specific CD4^+ T cell clone 3C8; assay: Processing of soluble recombinant protein by professional APC and presentation to specific CD4+ T cells (ELISPOT)
Procedure: FIG. 5A: The ability of EBV LAU 149 to process the SSX-2 protein and present the relevant epitope to specific CD4+ T cells was assessed by ELISPOT after 12 hrs incubation with soluble recombinant SSX-2 protein followed by washing. NY-ESO-1 protein was used as an internal control. FIGS. 5B and 5C: Processing and presentation of the SSX-2 CD4^+ T cell epitope by LAU 672 autologous monocyte-derived DC was assessed as in FIG. 5A.
as §1
We then assessed the ability of professional APC to process the SSX-2 antigen and present the SSX-2 13-34 epitope to specific CD4^+ T cells.

In the case of “IPEKIQKAFDDIAKYFSK (listed as Homo sapiens) [SEQ ID NO:5]”, the “peptide recognition relative to SEQ ID NO:1 (IFN-γ secretion)” value [1] is reported as “did not significantly affect recognition”.

For “VGAQIPEKIQKAFDDIAKYFSK (listed as Homo sapiens) [SEQ ID NO:1]”, the “reactivity of the culture to single peptides in the submixture P1-3” value (CD4^+ T cells) was “active peptide”, the “PBMC from healthy donors able to present the epitope to CD4^+ T cells” value [2] was 3 out of 14 and the “presentation of peptide by melanoma cell lines to specific T cell clones” value [3] was “efficiently presented”.

For “EKIQKAFDDIAKYFSK (listed as Homo sapiens) [SEQ ID NO:6]”, the “peptide recognition relative to SEQ ID NO:1 (IFN-γ secretion)” value [1] was “did not significantly affect recognition” and the “epitope mapping: minimal peptide among analyzed peptides” value ([1]; clone 2C3, similar results with another CD4+ T cell clone) was “minimal peptide optimally recognized”.

In the case of “IQKAFDDIAKYFSK (listed as Homo sapiens) [SEQ ID NO:7]”, the “reduction of peptide activity” value ([1]; relative to SEQ ID NO:1, clone 2C3, IFN-γ ELISA) is reported as 10 fold.

B1: SSX-2 protein: soluble recombinant SSX-2 protein given to APC (protein, UniProt Q16385 1-188, looked up)
Protein SSX2: MNGDDAFARRPTVGAQIPEKIQKAFDDIAKYFSKEEWEKMKASEKIFYVYMKRKYEAMTKLGFKATLPPFMCNKRAEDFQGNDLDNDPNRGNQVERPQMTFGRLQGISPKIMPKKPAEEGNDSEEVPEASGPQNDGKELCPPGKPTTSEKIHERSGPKRGEHAWTHRLRERKQLVIYEEISDPEEDDE
With B1 the “recognition of the CD8^+ T cell epitope SSX-2 41-49 after processing of exogenous protein” value [4] was “did not result in recognition”, the “processing of protein and presentation of the epitope / stimulation of clone 3C8” value ([5]; EBV LAU 149 as APC, 12 hrs incubation with soluble recombinant protein) was “efficiently process” and the “stimulation of clone 3C8” value ([5]; EBV cells unable to present the peptide as APC) was “not significantly stimulated”. For the same molecule, the “presentation of the epitope to specific CD4+ T cells” value ([5]; LAU 672 autologous dendritic cells (DC) as APC) was “Efficient presentation”.
